The record followed here is patent US11780812B2, “Oxopyridine derivatives useful as aminocarboxymuconate semialdehyde decarboxylase (ACMSD) inhibitors” (OrsoBio, Inc., priority 2016, dated 2023).

SMILES strings stand for the structures.

The target of the assay is human ACMSD (Homo sapiens (Human), UniProt Q8TDX5). The assay is described as follows: Human ACMSD-1 inhibitor assay (coupled 3-HAO/ACMSD, absorbance at 360 nm). Particulars: read-out: hACMSD IC50; human ACMSD 6 μg/ml, 50 mM MES pH 6.0, 28° C., four-parameter dose-response fit.
human ACMSD, sequence (Q8TDX5 whole entry): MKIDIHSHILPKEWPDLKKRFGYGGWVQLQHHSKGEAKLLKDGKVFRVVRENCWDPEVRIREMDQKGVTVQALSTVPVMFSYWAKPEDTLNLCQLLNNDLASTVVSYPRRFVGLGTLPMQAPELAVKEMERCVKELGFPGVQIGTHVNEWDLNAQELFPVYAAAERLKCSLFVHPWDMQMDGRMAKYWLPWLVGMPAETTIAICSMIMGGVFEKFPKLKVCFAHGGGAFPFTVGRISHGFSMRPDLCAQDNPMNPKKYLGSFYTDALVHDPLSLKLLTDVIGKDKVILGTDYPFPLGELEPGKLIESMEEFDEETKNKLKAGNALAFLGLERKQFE
Procedure: A solution of 7.8 μg/ml 3-hydroxyanthranilate 3,4-dioxygenase (3-HAO) with protein dilution buffer (50 mM 4-Morpholineethanesulfonic acid “MES” pH 6.0) and a solution of 6 μg/ml Human 2-amino-3-carboxymuconate-6-semialdehyde decarboxylase (human ACMSD) with protein dilution buffer (50 mM MES pH 6.0) were prepared separately. A serial 2-fold dilution of test compounds, from 512 nM until 0.5 nM were prepared.
The plate was placed into a SpectraMax Plus 384 Microplate Reader, Molecular Devices with the temperature set to 28° C. The absorbance at 360 nm for 10 min with 10 seconds interval was monitored and recorded.
To a 96-well plate was added 50 μl of 6 μg/ml human ACMSD with series concentrations of the test compound. The absorbance was recorded at 360 nm for 10 min with 10 seconds interval. The data was analyzed in GraphPad Prism 6. A four-parameter dose-response curve was fitted. “Hill Slope” was constrained between −0.5 and −3, and such constrains was indicated when applied.
By IC50 is commonly meant the concentration needed to halve the response being measured. For `N#Cc1c(C(F)(F)F)cc(=O)[nH]c1SCC(=O)O` [Ex. 1, 2-((3-cyano-6-oxo-4-(trifluoromethyl)-1,6-dihydropyridin-2-yl)thio)acetic acid], the IC50 stood at 6 nM.

Turning to `N#Cc1c(C(F)(F)F)cc(=O)[nH]c1SCCC(=O)O` [Ex. 2, 3-(3-cyano-6-oxo-4-(trifluoromethyl)-1,6-dihydropyridin-2-ylthio)propanoic acid], the IC50 is 752 nM.

On to `N#Cc1c(C(F)(F)F)cc(=O)[nH]c1SCc1cc(C(=O)O)ccc1Cl` [Ex. 3, 4-chloro-3-((3-cyano-6-oxo-4-(trifluoromethyl)-1,6-dihydropyridin-2-ylthio)methyl)benzoic acid], for which the IC50 was 158 nM.

On to `N#Cc1c(C(F)F)cc(=O)[nH]c1SCC(=O)O` [Ex. 4, 2-((3-cyano-4-(difluoromethyl)-6-oxo-1,6-dihydropyridin-2-yl)thio)acetic acid], for which the IC50 amounted to 118 nM.

As to `Cc1c(C(F)(F)F)c(C#N)c(SCC(=O)O)[nH]c1=O` [Ex. 5, 2-((3-cyano-5-methyl-6-oxo-4-(trifluoromethyl)-1,6-dihydropyridin-2-yl)thio)acetic acid], the IC50 stood at 26 nM.

Take `CCCc1cc(=O)[nH]c(SCC(=O)O)c1C#N` [Ex. 6, 2-((3-cyano-6-oxo-4-propyl-1,6-dihydropyridin-2-yl)thio)acetic acid]: the IC50 came to 3050 nM.

In the case of `CC(Sc1[nH]c(=O)cc(C(F)(F)F)c1C#N)C(=O)O` (centres unmarked) [Ex. 7, 2-(3-cyano-6-oxo-4-(trifluoromethyl)-1,6-dihydropyridin-2-ylthio)propanoic acid], the IC50 amounted to 271 nM.

Consider `N#Cc1c(C(F)(F)F)cc(=O)[nH]c1SCc1cccc(C(=O)O)c1` [Ex. 8, 3-((3-cyano-6-oxo-4-(trifluoromethyl)-1,6-dihydropyridin-2-ylthio)methyl)benzoic acid], for which the IC50 was determined as 1610 nM.

For `CCc1cc(=O)[nH]c(SCC(=O)O)c1C#N` [Ex. 9, 2-((3-cyano-4-ethyl-6-oxo-1,6-dihydropyridin-2-yl)thio)acetic acid], the IC50 turned out to be 3400 nM.

Regarding `CC(C)(C)c1cc(=O)[nH]c(SCC(=O)O)c1C#N` [Ex. 10, 2-((4-(tert-butyl)-3-cyano-6-oxo-1,6-dihydropyridin-2-yl)thio)acetic acid], the IC50 was found to be 4600 nM.

Regarding `COCc1cc(=O)[nH]c(SCC(=O)O)c1C#N` [Ex. 11, 2-(3-cyano-4-(methoxymethyl)-6-oxo-1,6-dihydropyridin-2-ylthio)acetic acid], the IC50 was 9000 nM.

Regarding `N#Cc1c(-c2ccccc2)cc(=O)[nH]c1SCC(=O)O` [Ex. 12, 2-((3-cyano-6-oxo-4-phenyl-1,6-dihydropyridin-2-yl)thio)acetic acid], the IC50 is 7000 nM.

Turning to `CC(C)c1cc(=O)[nH]c(SCC(=O)O)c1C#N` [Ex. 13, 2-((3-cyano-4-isopropyl-6-oxo-1,6-dihydropyridin-2-yl)thio)acetic acid], the IC50 stood at 2600 nM.

`N#Cc1c(C2CC2)cc(=O)[nH]c1SCC(=O)O` [Ex. 14, 2-((3-cyano-4-cyclopropyl-6-oxo-1,6-dihydropyridin-2-yl)thio)acetic acid]: the IC50 came to 7300 nM.

Consider `N#Cc1c(-c2ccccc2)cc(=O)[nH]c1SCc1cccc(C(=O)O)c1` [Ex. 15, 3-(((3-cyano-6-oxo-4-phenyl-1,6-dihydropyridin-2-yl)thio)methyl)benzoic acid], for which the IC50 was 56 nM.

As for `COc1ccc(C(=O)O)cc1CSc1[nH]c(=O)cc(C(F)(F)F)c1C#N` [Ex. 16, 3-(((3-cyano-6-oxo-4-(trifluoromethyl)-1,6-dihydropyridin-2-yl)thio)methyl)-4-methoxybenzoic acid], the IC50 stood at 530 nM.

On to `N#Cc1c(SCC(=O)O)[nH]c(=O)c(F)c1C(F)(F)F` [Ex. 17, 2-(3-cyano-5-fluoro-6-oxo-4-(trifluoromethyl)-1,6-dihydropyridin-2-ylthio)acetic acid], for which the IC50 amounted to 9 nM.

In the case of `N#Cc1c(Cc2ccccc2)cc(=O)[nH]c1SCC(=O)O` [Ex. 18, 2-((4-benzyl-3-cyano-6-oxo-1,6-dihydropyridin-2-yl)thio)acetic acid], the IC50 worked out at 36 nM.

As for `N#Cc1c(C(F)(F)F)cc(=O)[nH]c1SCc1cc(C(=O)O)ccc1F` [Ex. 19, 3-((3-cyano-6-oxo-4-(trifluoromethyl)-1,6-dihydropyridin-2-ylthio)methyl)-4-fluorobenzoic acid], the IC50 was 230 nM.

Consider `N#Cc1c(C(F)(F)F)cc(=O)[nH]c1SCc1cc(F)cc(C(=O)O)c1` [Ex. 20, 3-(((3-cyano-6-oxo-4-(trifluoromethyl)-1,6-dihydropyridin-2-yl)thio)methyl)-5-fluorobenzoic acid], for which the IC50 was 350 nM.

For `N#Cc1c(C(F)(F)F)cc(=O)[nH]c1SCc1cccc(C(=O)O)c1F` [Ex. 22, 3-(((3-cyano-6-oxo-4-(trifluoromethyl)-1,6-dihydropyridin-2-yl)thio)methyl)-2-fluorobenzoic acid], the IC50 was determined as 830 nM.

Turning to `N#Cc1c(-c2cccs2)cc(=O)[nH]c1SCc1cccc(C(=O)O)c1` [Ex. 23, 3-(((3-cyano-6-oxo-4-(thiophen-2-yl)-1,6-dihydropyridin-2-yl)thio)methyl)benzoic acid], the IC50 turned out to be 7 nM.

In the case of `N#Cc1c(C2CCCCC2)cc(=O)[nH]c1SCc1cccc(C(=O)O)c1` [Ex. 24, 3-(((3-cyano-4-cyclohexyl-6-oxo-1,6-dihydropyridin-2-yl)thio)methyl)benzoic acid], the IC50 came to 470 nM.

As for `Cc1cccc(-c2cc(=O)[nH]c(SCc3cccc(C(=O)O)c3)c2C#N)c1` [Ex. 25, 3-(((3-cyano-6-oxo-4-(m-tolyl)-1,6-dihydropyridin-2-yl)thio)methyl)benzoic acid], the half-inhibitory concentration (IC50) was 6 nM.

Regarding `N#Cc1c(-c2ccncc2)cc(=O)[nH]c1SCc1cccc(C(=O)O)c1` [Ex. 26, 3-(((3-cyano-6-oxo-1,6-dihydro-[4,4′-bipyridin]-2-yl)thio)methyl)benzoic acid], the IC50 was found to be 29 nM.

As to `N#Cc1c(C(F)(F)F)cc(=O)[nH]c1SC(F)C(=O)O` (centres unmarked) [Ex. 27, 2-(3-cyano-6-oxo-4-(trifluoromethyl)-1,6-dihydropyridin-2-ylthio)-2-fluoroacetic acid], the IC50 came out at 9 nM.

Turning to `N#Cc1c(C(F)(F)F)cc(=O)[nH]c1SC(F)(F)C(=O)O` [Ex. 28, 2-((3-cyano-6-oxo-4-(trifluoromethyl)-1,6-dihydropyridin-2-yl)thio)-2,2-difluoroacetic acid], the IC50 is 20 nM.

As for `Cc1ccc(-c2cc(=O)[nH]c(SCc3cccc(C(=O)O)c3)c2C#N)cc1` [Ex. 29, 3-(((3-cyano-6-oxo-4-(p-tolyl)-1,6-dihydropyridin-2-yl)thio)methyl)benzoic acid], the IC50 came to 4 nM.

Turning to `N#Cc1c(SCc2cccc(C(=O)O)c2)[nH]c(=O)c(F)c1-c1ccccc1` [Ex. 30, 3-(((3-cyano-5-fluoro-6-oxo-4-phenyl-1,6-dihydropyridin-2-yl)thio)methyl)benzoic acid], the IC50 was 70 nM.

`Cc1c(-c2ccccc2)c(C#N)c(SCc2cccc(C(=O)O)c2)[nH]c1=O` [Ex. 31, 3-((3-cyano-5-methyl-6-oxo-4-phenyl-1,6-dihydropyridin-2-ylthio)methyl)benzoic acid]: the IC50 is above 10000 nM.

`N#Cc1c(-c2ccccn2)cc(=O)[nH]c1SCc1cccc(C(=O)O)c1` [Ex. 32, 3-(((3′-cyano-6′-oxo-1′,6′-dihydro-[2,4′-bipyridin]-2′-yl)thio)methyl)benzoic acid]: the IC50 came to 170 nM.

`N#Cc1c(-c2ccccc2)cc(=O)[nH]c1SCc1cccc(C(=O)O)n1` [Ex. 33, 6-(((3-cyano-6-oxo-4-phenyl-1,6-dihydropyridin-2-yl)thio)methyl)picolinic acid]: the IC50 came to 190 nM.

Turning to `N#Cc1c(-c2ccccc2)cc(=O)[nH]c1SCc1cncc(C(=O)O)c1` [Ex. 34, 5-(((3-cyano-6-oxo-4-phenyl-1,6-dihydropyridin-2-yl)thio)methyl)nicotinic acid], the IC50 is 3 nM.

In the case of `N#Cc1c(CC2CCCCC2)cc(=O)[nH]c1SCc1cccc(C(=O)O)c1` [Ex. 35, 3-(((3-cyano-4-(cyclohexylmethyl)-6-oxo-1,6-dihydropyridin-2-yl)thio)methyl)benzoic acid], the IC50 stood at 200 nM.

As for `N#Cc1c(-c2ccsc2)cc(=O)[nH]c1SCc1cccc(C(=O)O)c1` [Ex. 36, 3-((3-cyano-6-oxo-4-(thiophen-3-yl)-1,6-dihydropyridin-2-ylthio)methyl)benzoic acid], the IC50 came out at 160 nM.

For `N#Cc1c(-c2cccnc2)cc(=O)[nH]c1SCc1cccc(C(=O)O)c1` [Ex. 37, 3-(((3′-cyano-6′-oxo-1′,6′-dihydro-[3,4′-bipyridin]-2′-yl)thio)methyl)benzoic acid], the IC50 stood at 50 nM.

As to `N#Cc1c(SCC(=O)O)[nH]c(=O)c(Cl)c1C(F)(F)F` [Ex. 38, 2-(5-chloro-3-cyano-6-oxo-4-(trifluoromethyl)-1,6-dihydropyridin-2-ylthio)acetic acid], the IC50 was 11 nM.

Take `N#Cc1c(SCC(=O)O)[nH]c(=O)c(C#N)c1C(F)(F)F` [Ex. 39, 2-((3,5-dicyano-6-oxo-4-(trifluoromethyl)-1,6-dihydropyridin-2-yl)thio)acetic acid]: the IC50 was above 10000 nM.

Take `N#Cc1c(SCc2nnn[nH]2)[nH]c(=O)c(Cl)c1C(F)(F)F` [Ex. 40, 2-((1H-tetrazol-5-yl)methylthio)-5-chloro-6-oxo-4-(trifluoromethyl)-1,6-dihydropyridine-3-carbonitrile]: the IC50 was determined as 4 nM.

Take `N#Cc1c(SCc2cccc(C(=O)O)c2)[nH]c(=O)c(Cl)c1-c1ccccc1` [Ex. 41, 3-(((5-chloro-3-cyano-6-oxo-4-phenyl-1,6-dihydropyridin-2-yl)thio)methyl)benzoic acid]: the IC50 is 3 nM.

As to `N#Cc1c(C(F)(F)F)cc(=O)[nH]c1SCc1cccc(-c2nnn[nH]2)c1` [Ex. 42, 2-(3-(1H-tetrazol-5-yl)benzylthio)-6-oxo-4-(trifluoromethyl)-1,6-dihydropyridine-3-carbonitrile], the IC50 was determined as 32 nM.
